Structures can show the parent of a compound that is named as a salt. Where two headings read alike, the source gives them in different places.
Assays:
[1] = target: T1, human V1a receptor (Homo sapiens, UniProt P37288); test: Cellular in vitro assay for determining vasopressin receptor activity, V1a receptor cell line (CHO, aequorin luminescence); type: cell-based; conditions: for IC50: CHO cell line transfected with human V1a receptor, [Arg]-vasopressin at EC50 concentration, read-out: IC50 hV1a; for ratio IC50 hV2/hV1a: selectivity ratio IC50 hV2 / IC50 hV1a
T1 construct: expressed in transfected cells; host or cells: CHO K1 (ATCC), also stably transfected with a modified aequorin
Procedure, shortened: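 IC50 from inhibition of [Arg]-vasopressin (EC50 concentration)-evoked aequorin luminescence in CHO K1 cells, with 10-min compound pretreatment.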

[2] = target: T2, human V2 receptor (Homo sapiens, UniProt P30518); test: Cellular in vitro assay for determining vasopressin receptor activity, V2 receptor cell line (CHO, CRE-luciferase); type: cell-based; conditions: CHO cell line transfected with human V2 receptor, [Arg8]-vasopressin at EC50 concentration, read-out: IC50 hV2
T2 construct: expressed in transfected cells; host or cells: CHO K1 (ATCC) expressing firefly luciferase under a CRE-responsive promoter
T2 sequence (P30518 whole entry): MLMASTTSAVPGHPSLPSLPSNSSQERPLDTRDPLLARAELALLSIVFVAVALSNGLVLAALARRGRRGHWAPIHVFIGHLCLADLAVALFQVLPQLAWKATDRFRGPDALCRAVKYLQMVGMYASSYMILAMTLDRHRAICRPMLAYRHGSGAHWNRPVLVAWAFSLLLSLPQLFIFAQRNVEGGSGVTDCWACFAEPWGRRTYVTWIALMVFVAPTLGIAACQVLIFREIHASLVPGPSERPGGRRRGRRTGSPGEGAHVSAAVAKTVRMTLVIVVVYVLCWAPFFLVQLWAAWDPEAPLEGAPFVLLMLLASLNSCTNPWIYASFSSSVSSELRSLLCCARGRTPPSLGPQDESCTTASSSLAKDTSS

T1 sequence (P37288 whole entry): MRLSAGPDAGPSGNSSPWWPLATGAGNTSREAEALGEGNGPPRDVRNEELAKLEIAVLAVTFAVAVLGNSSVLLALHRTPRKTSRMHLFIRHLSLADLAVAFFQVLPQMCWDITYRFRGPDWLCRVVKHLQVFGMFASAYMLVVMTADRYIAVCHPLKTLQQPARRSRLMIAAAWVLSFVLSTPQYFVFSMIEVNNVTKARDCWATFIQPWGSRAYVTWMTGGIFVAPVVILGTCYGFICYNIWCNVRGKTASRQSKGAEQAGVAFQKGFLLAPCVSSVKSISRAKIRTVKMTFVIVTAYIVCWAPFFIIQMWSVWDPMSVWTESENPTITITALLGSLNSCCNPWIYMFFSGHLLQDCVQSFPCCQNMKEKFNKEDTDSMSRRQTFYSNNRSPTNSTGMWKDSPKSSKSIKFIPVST

IC50 [1] [nM]	ratio IC50 hV2/hV1a [1]	IC50 ([2]; 3 hours) [nM]	IC50 [2] [nM]	Structure (SMILES)
4.4	60.2	265		O=C(NCc1ccccc1)c1ccccc1-n1cnc(Cn2nc(-c3ccc(Cl)cc3)n(C[C@H](O)C(F)(F)F)c2=O)n1 [Example 299, N-Benzyl-2-[3-({3-(4-chlorophenyl)-5-oxo-4-[(2S)-3,3,3-trifluoro-2-hydroxypropyl]-4,5-dihydro-1H-1,2,4-triazol-1-yl}methyl)-1H-1,2,4-triazol-1-yl]benzamide]
220	102.3		22500	O=C1CN(C(=O)c2ncccc2-n2cnc(Cn3nc(-c4ccc(Cl)cc4)n(C[C@H](O)C(F)(F)F)c3=O)n2)CCN1 [Example 443, 4-({3-[3-({3-(4-Chlorophenyl)-5-oxo-4-[(2S)-3,3,3-trifluoro-2-hydroxypropyl]-4,5-dihydro-1H-1,2,4-triazol-1-yl}methyl)-1H-1,2,4-triazol-1-yl]pyridin-2-yl}carbonyl)piperazin-2-one]
16	140.6	2250		Cc1nccn1CC(=O)Nc1ncccc1-n1cnc(Cn2nc(-c3ccc(Cl)cc3)n(C[C@H](O)C(F)(F)F)c2=O)n1 [Example 94]
14.4	463.7	6700		N[C@H]1CCCC[C@@H]1NC(=O)c1ccccc1-n1cnc(Cn2nc(-c3ccc(Cl)cc3)n(C[C@H](O)C(F)(F)F)c2=O)n1 [Example 233, N-[(1S,2S)-2-Aminocyclohexyl]-2-[3-({3-(4-chlorophenyl)-5-oxo-4-[(2S)-3,3,3-trifluoro-2-hydroxypropyl]-4,5-dihydro-1H-1,2,4-triazol-1-yl}methyl)-1H-1,2,4-triazol-1-yl]benzamide]
7.35	673.5	4950		O=C(Nc1ncccc1-n1cnc(Cn2nc(-c3ccc(Cl)cc3)n(C[C@H](O)C(F)(F)F)c2=O)n1)C1CC1F (stereo partly drawn) [Example 85, N-{3-[3-({3-(4-Chlorophenyl)-5-oxo-4-[(2S)-3,3,3-trifluoro-2-hydrxypropyl]-4,5-dihydro-1H-1,2,4-triazol-1-yl}methyl)-1H-1,2,4-triazol-1-yl]pyridin-2-yl}-2-fluorocyclopropanecarboxamide]
36.5	66.4	2420		NC(=O)[C@@H]1CCN(C(=O)c2ccccc2-n2cnc(Cn3nc(-c4ccc(Cl)cc4)n(C[C@H](O)C(F)(F)F)c3=O)n2)C1 [Example 199, (3R)-1-{2-[3-({3-(4-Chlorophenyl)-5-oxo-4-[(2S)-3,3,3-trifluoro-2-hydroxypropyl]-4,5-dihydro-1H-1,2,4-triazol-1-yl}methyl)-1H-1,2,4-triazol-1-yl]benzoyl}pyrrolidine-3-carboxamide]
5700	9.6		55000	COCC1CCCN1C(=O)c1ccncc1-n1nc(Cn2nc(-c3ccc(Cl)cc3)n(C[C@H](O)C(F)(F)F)c2=O)nc1C(=O)N1CCNC(=O)C1 (mixture of isomers) [Example 516, 4-{[3-({3-(4-Chlorophenyl)-5-oxo-4-[(2S)-3,3,3-trifluoro-2-hydroxypropyl]-4,5-dihydro-1H-1,2,4-triazol-1-yl}methyl)-1-(4-{[2-(methoxymethyl)pyrrolidin-1-yl]carbonyl}pyridin-3-yl)-1H-1,2,4-triazol-5-yl]carbonyl}piperazin-2-one]
250	2.8	690		NC(=O)[C@H]1CCCN1c1ccncc1-n1cnc(Cn2nc(-c3ccc(Cl)cc3)n(C[C@H](O)C(F)(F)F)c2=O)n1 [Example 22, 1-{3-[3-({3-(4-Chlorophenyl)-5-oxo-4-[(2S)-3,3,3-trifluoro-2-hydroxypropyl]-4,5-dihydro-1H-1,2,4-triazol-1-yl}methyl)-1H-1,2,4-triazol-1-yl]pyridin-4-yl}-D-prolinamide]
240	41.5		9950	O=C(c1cccc(Cl)c1-n1cnc(Cn2nc(-c3ccc(Cl)cc3)n(C[C@@H](O)C(F)(F)F)c2=O)n1)N1CCCCC1 [Example 401, 5-(4-Chlorophenyl)-2-({1-[2-chloro-6-(piperidin-1-ylcarbonyl)phenyl]-1H-1,2,4-triazol-3-yl}methyl)-4-[(2R)-3,3,3-trifluoro-2-hydroxypropyl]-2,4-dihydro-3H-1,2,4-triazol-3-one]
660	2.0	1300		Cc1cn(CC(=O)Nc2ncccc2-n2cnc(Cn3nc(-c4ccc(Cl)cc4)n(C[C@H](O)C(F)(F)F)c3=O)n2)nn1 [Example 164]
6.1	278.7	1700		O=C1CC[C@H](CNC(=O)c2ccccc2-n2cnc(Cn3nc(-c4ccc(Cl)cc4)n(C[C@H](O)C(F)(F)F)c3=O)n2)N1 [Example 179, 2-[3-({3-(4-Chlorophenyl)-5-oxo-4-[(2S)-3,3,3-trifluoro-2-hydroxypropyl]-4,5-dihydro-1H-1,2,4-triazol-1-yl}methyl)-1H-1,2,4-triazol-1-yl]-N-{[(2R)-5-oxopyrrolidin-2-yl]methyl}benzamide]
4.2	52.4	220		CC(=O)Nc1cccnc1-n1cnc(Cn2nc(-c3ccc(Cl)cc3)n(C[C@H](O)C(F)(F)F)c2=O)n1 [Example 38, N-{2-[3-({3-(4-Chlorophenyl)-5-oxo-4-[(2S)-3,3,3-trifluoro-2-hydroxypropyl]-4,5-dihydro-1H-1,2,4-triazol-1-yl}methyl)-1H-1,2,4-triazol-1-yl]pyridin-3-yl}acetamide]
175	182.9		32000	CC1(C)CNCCN1C(=O)c1ncccc1-n1cnc(Cn2nc(-c3ccc(Cl)cc3)n(C[C@H](O)C(F)(F)F)c2=O)n1 [Example 453, 5-(4-Chlorophenyl)-2-[(1-{2-[(2,2-dimethylpiperazin-1-yl)carbonyl]pyridin-3-yl}-1H-1,2,4-triazol-3-yl)methyl]-4-[(2S)-3,3,3-trifluoro-2-hydroxypropyl]-2,4-dihydro-3H-1,2,4-triazol-3-one-Hydrochloric Acid Salt]
0.84	383.2	320		CC1CCCCN1C(=O)c1ccccc1-n1cnc(Cn2nc(-c3ccc(Cl)cc3)n(C[C@H](O)C(F)(F)F)c2=O)n1 (stereo partly drawn) [Example 352, 5-(4-Chlorophenyl)-2-{[1-(2-{[2-methylpiperidin-1-yl]carbonyl}phenyl)-1H-1,2,4-triazol-3-yl]methyl}-4-[(2S)-3,3,3-trifluoro-2-hydroxypropyl]-2,4-dihydro-3H-1,2,4-triazol-3-one]
1.6	600.0	960		O=C(c1ccccc1-n1cnc(Cn2nc(-c3ccc(Cl)cc3)n(C[C@H](O)C(F)(F)F)c2=O)n1)N1CCCCC1 [Example 338, 5-(4-Chlorophenyl)-2-({1-[2-(piperidin-1-ylcarbonyl)phenyl]-1H-1,2,4-triazol-3-yl}methyl)-4-[(2S)-3,3,3-trifluoro-2-hydroxypropyl]-2,4-dihydro-3H-1,2,4-triazol-3-one]
